# Test results: US20150057305A1, “PHARMACEUTICAL COMPOSITION” (SHANGHAI HOTMED SCIENCES CO., LTD., priority 2012, published 2015)
# How the values were obtained:
# [1] = dog, in vivo; cited from earlier work
# [2] = Distribution coefficient (n-octanol-water) shake flask method GB/T 21853-2008; type: physicochemical; settings: in water
# Solubility in water = type: physicochemical
# [3] = cited from earlier work
Structure (SMILES),oral bioavailability [1],Lg Po/w [2],solubility in water (Solubility in water),stability in human plasma [3]
"CC[C@@]1(O)C(=O)OCc2c1cc1n(c2=O)Cc2cc3c([N+](=O)[O-])cccc3nc2-1 [Example 9-NC, 9-nitro-camptothecin]",less than 6%,–,–,–
CC[C@@]1(OC(=O)OCC(C)C)C(=O)OCc2c1cc1n(c2=O)Cc2cc3c([N+](=O)[O-])cccc3nc2-1 [the compound of formula I],–,7.31,almost insoluble in water,good stability
